Assay results published in publication PMC8145107 (Pharmaceutics, 2021).

Columns and labels:
[1] = system: HFL-1: human embryonic lung cell line; assay: Cytotoxicity in normal mammalian cells (HFL-1); format: cell-based; settings: HFL1, HFL-1, 24 h, 0.01-100 μM, read-out: IC50 of compounds in various normal mammalian cells
[2] = system: T1, HSP27; assay: HSP27 cross-linking in NCI-H460 cells (Western blot); format: cell-based, human; settings: 0-20 μM, 24 h
T1 construct: endogenous in cells; host or cells: NCI-H460
Experimental: For polyacrylamide gel electrophoresis (PAGE) and Western blot (WB) analysis, cells were lysed with radioimmunoprecipitation assay (RIPA) buffer (50 mM Tris-HCl [pH 7.5], 150 mM NaCl, 1% NP-40, 0.1% sodium dodecyl sulfate (SDS), and 1% sodium deoxycholate) supplemented with 1 mM Na3VO4, 1 mM dithiothreitol (DTT), 1 mM phenyl-methyl-sulfonyl fluoride (PMSF), and protease inhibitor cocktail (Calbiochem). The samples were boiled for 5 min, and equal amounts of protein were analyzed by SDS-PAGE. […]
( B) NCI-H460 cells were tr eated with J2 or NA49 (0, 1, 5, 10 and 20 μM) for 24 h, and cell lysates were
detected by Western blot analysis. […]

[3] = biological target: CYP2C9 (Homo sapiens, UniProt P11712); assay: CYP450 enzyme inhibition, 2C9; format: in vitro ADME; settings: compound 0.05~50 μM; read-out: IC50 against CYP450 isotype 2C9
CYP2C9, sequence (P11712 whole entry): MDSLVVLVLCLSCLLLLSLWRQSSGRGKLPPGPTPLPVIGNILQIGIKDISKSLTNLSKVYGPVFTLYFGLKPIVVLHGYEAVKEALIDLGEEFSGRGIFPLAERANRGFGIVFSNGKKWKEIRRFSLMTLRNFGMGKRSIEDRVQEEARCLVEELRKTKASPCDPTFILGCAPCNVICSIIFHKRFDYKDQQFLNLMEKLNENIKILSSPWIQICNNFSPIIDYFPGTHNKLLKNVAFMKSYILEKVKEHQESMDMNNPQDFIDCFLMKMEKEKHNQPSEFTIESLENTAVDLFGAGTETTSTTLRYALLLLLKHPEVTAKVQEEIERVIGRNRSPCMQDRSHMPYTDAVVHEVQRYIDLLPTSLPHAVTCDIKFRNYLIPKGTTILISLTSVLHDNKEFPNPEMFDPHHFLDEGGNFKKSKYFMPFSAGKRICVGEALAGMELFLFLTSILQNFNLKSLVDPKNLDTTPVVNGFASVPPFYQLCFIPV
Experimental: Permeability was evaluated with a parallel artificial membrane permeability (PAMPA) assay using an artificially generated lipid-infused membrane.

[4] = Single-dose IV toxicity in ICR mice; format: in vivo, mouse; settings: male, mouse, in vivo, not achieved by the maximum dose
From the text: (§1) Male Sprague–Dawley rats (7-week-old) and male Institute of Cancer Research (ICR) mice (5-week-old) were purchased from Orient Bio (Seongnam, Korea) and Samtako Bio (Osan, Korea), respectively. The experimental animals were housed under conventional conditions and fasted overnight before surgery for catheterization. All procedures for animal experiments were in accordance with the guidelines by the Ewha Woman’s University Institutional Animal Care and Use Committee (IACUC, 15-049 and 16-062), Korea.
(§2) For single-dose toxicity study of each drug, ICR mice were divided into 6 groups of control (0.9% normal saline), vehicle, and four dosages of each inhibitor (n = 4 mice per group). Both inhibitors dissolved in the same solvent system as the pharmacokinetic study were administered to the mice by caudal vein injection at doses of 2.5, 7.5, 15 and 30 mg/kg. After a single administration, all mice were observed daily for general conditions including behavior, hair, eyes, and nose. In addition, body weight was measured on days 0, 3, 7, and 14 following IV administration.

[5] = system: ICR mice; assay: Single-dose IV toxicity in ICR mice; format: in vivo, mouse; settings: 14 days, n = 4
From the text: as §1, §2

[6] = biological target: CYP450 2D6 (Homo sapiens, UniProt P10635); assay: CYP450 enzyme inhibition, 2D6; format: in vitro ADME; settings: compound 0.05~50 μM; read-out: IC50 against CYP450 isotype 2D6
CYP450 2D6, sequence (P10635 whole entry): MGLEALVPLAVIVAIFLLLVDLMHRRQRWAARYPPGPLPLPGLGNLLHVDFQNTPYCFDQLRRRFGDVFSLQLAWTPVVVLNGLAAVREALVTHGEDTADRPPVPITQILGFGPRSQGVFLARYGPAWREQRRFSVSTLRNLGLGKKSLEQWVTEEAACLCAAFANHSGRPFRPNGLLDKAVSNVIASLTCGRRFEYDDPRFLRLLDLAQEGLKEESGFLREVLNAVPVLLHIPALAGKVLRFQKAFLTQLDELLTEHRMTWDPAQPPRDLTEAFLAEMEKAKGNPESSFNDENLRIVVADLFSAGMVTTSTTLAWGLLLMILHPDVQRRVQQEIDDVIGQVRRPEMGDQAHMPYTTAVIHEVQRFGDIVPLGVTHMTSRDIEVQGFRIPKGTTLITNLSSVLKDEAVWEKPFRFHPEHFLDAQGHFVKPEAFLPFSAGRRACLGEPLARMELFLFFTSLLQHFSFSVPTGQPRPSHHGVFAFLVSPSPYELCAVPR

[7] = system: normal mammalian cells; assay: Cytotoxicity, range over the normal mammalian cell panel; format: cell-based; settings: HFL-1, L929, NIH3T3, CHO-K1, VERO; 24 h; read-out: IC50 values, range over the normal cell lines
[8] = Liver microsomal phase I stability assay (rat); format: in vitro ADME; settings: rat liver microsomes
[9] = system: NIH 3T3: mouse embryonic fibroblast cell line; assay: Cytotoxicity in normal mammalian cells (NIH 3T3); format: cell-based; settings: NIH3T3, 24 h, 0.01-100 μM, read-out: IC50 of compounds in various normal mammalian cells
[10] = system: NCI-H460 cells; assay: MTT viability assay, NCI-H460; format: cell-based, human; settings: Homo sapiens, 24 h
Experimental: (§3) The human NSCLC cell lines of NCI-H460, A549, HCC827, PC9, NCI-H1650, and NCI-H1975 were obtained from the American Type Culture Collection (Rockville, MD, USA). Cells were cultured in RPMI 1640 medium containing 10% FBS, 2 mmol/L L-glutamine, and 100 units/mL of penicillin and streptomycin and maintained at 37 °C in a humidified incubator containing 5% CO2.
(§4) Cell viability against gefitinib-, cisplatin-, and NA49-induced toxicity was determined using an MTT (Amersham Pharmacia Biotech) assay in 96-well plates. […] Next, cells were incubated with 100 µL of 5 mg/mL 3-(4,5-dimethylthiazol-2-yl)-2,5-diphenyltetrazolium bromide (Sigma Aldrich, M5655) for 2 h. After the MTT mixture was removed, 100 µL of DMSO was added to each well, and absorbance at 540 nm was measured using an ELISA plate reader (TECAN, Twinfinite PRO).

[11] = system: A549 cells; assay: MTT viability assay, A549; format: cell-based; settings: Homo sapiens, 24 h
[12] = system: PC9 cells; assay: Cell death by PI staining / flow cytometry, PC9; format: cell-based, human; settings: NA 10 µM + gefitinib 0.01 µM, CompuSyn
Experimental: Cells were plated in 6-well culture plates at a density of 1 × 10^5 cells/well. Compounds were applied to the cells immediately after seeding. When cells were harvested, cells were washed once with 1× phosphate-buffered saline (PBS), dissociated using Trypsin-EDTA, and centrifuged at 13,000 rpm for 3 min at 4 °C. Next, 1 mL of 1× PBS was added to wash the pellet again. Finally, 1 mL of 1× PBS and 1 μg/mL of propidium iodide (PI) were added to each polystyrene round-bottom tube. Flow cytometric analysis was performed using a FACS flow cytometer (BD Bioscience). To measure cell death, 10^4 cells were counted, and PI-stained cells were analyzed. FACS analysis in accordance with the manufacturer’s instruction. […]
Table S1. CI values of NSCLC cell lines.
Cell line Combination drug NA 10 µM NA 20 µM
CI values were calculated from the data of percent inhibition of cell death by PI staining. Each CI
value was analyzed by CompuSyn software. […]

[13] = system: PC9 cells; assay: MTT viability assay, PC9; format: cell-based; settings: Homo sapiens, PC-9, 24 h
Experimental: as §3, §4

Compound: Cc1cc(=O)c2c(O)cc(OCC3CS3)cc2o1 (stereo not shown) [J2]
- IC50 [1]: > 100 µM
- HSP27 cross-linking activity (altered dimerization) [2]: altered dimerization was detected
- IC50 [3]: > 50 µM
- LD50 at 14 days [4]: > 30 mg/kg
- Survival Rate (%) ([5]; 2.5 mg/kg): 100%
- Survival Rate (%) ([5]; 7.5 mg/kg): 100%
- Survival Rate (%) ([5]; 15 mg/kg): 100%
- Survival Rate (%) ([5]; 30 mg/kg): 100%
- IC50 [6]: > 50 µM
- IC50 [7]: ≥ 91.8 µM
- In vitro Metabolic Stability (% of remaining after 30 min) [8]: 2.6 ± 0.45%
- IC50 [9]: > 100 µM

Compound: COc1ccc(-c2coc3cc(OCC4CS4)ccc3c2=O)c(OC)c1 (stereo not shown) [NA49]
- IC50 [1]: 94.5 µM
- HSP27 cross-linking activity (altered dimerization) [2]: slightly less than J2
- IC50 [10]: 38.1 ± 0.69 µM
- IC50 [11]: 62.5 ± 0.9 µM
- CI value (combination index) [12]: 1.84
- IC50 [3]: 19.2 µM
- LD50 at 14 days [4]: > 30 mg/kg
- Survival Rate (%) ([5]; 2.5 mg/kg): 100%
- Survival Rate (%) ([5]; 7.5 mg/kg): 100%
- Survival Rate (%) ([5]; 15 mg/kg): 100%
- Survival Rate (%) ([5]; 30 mg/kg): 75%
- IC50 [13]: 73 ± 2.66 µM
- IC50 [6]: > 50 µM
- IC50 [7]: 83.6 to 96.5 µM
- In vitro Metabolic Stability (% of remaining after 30 min) [8]: 5.0 ± 1.33%
- IC50 [9]: 96.5 µM
